Reference: PubChem BioAssay (NCI)
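96-well plates; 48 h exposure; 5 concentrations. Endpoints by linear interpolation between flanking doses. Not reached: highest tested concentration assigned. The concentration for 50% growth inhibition is given as GI50. The concentration for full growth arrest is given as TGI.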

Assays:
Assay in all cases: NCI tumour cell line growth inhibition, 48 h
MALME-3M melanoma = test system: MALME-3M melanoma
SN12C renal = test system: SN12C renal
NCI-H226 lung = test system: NCI-H226 lung
SK-MEL-2 melanoma = test system: SK-MEL-2 melanoma
OVCAR-5 ovarian = test system: OVCAR-5 ovarian
SK-MEL-28 melanoma = test system: SK-MEL-28 melanoma
UACC-62 melanoma = test system: UACC-62 melanoma
EKVX NSCLC = test system: EKVX NSCLC
UO-31 renal = test system: UO-31 renal
U251 CNS = test system: U251 CNS
MDA-MB-231 breast = test system: MDA-MB-231 breast
SNB-19 CNS = test system: SNB-19 CNS
HOP-92 NSCLC = test system: HOP-92 NSCLC
DU-145 prostate = test system: DU-145 prostate
MOLT-4 leukemia = test system: MOLT-4 leukemia
CAKI-1 renal = test system: CAKI-1 renal
SW-620 colon = test system: SW-620 colon
HCC-2998 colon = test system: HCC-2998 colon
HCT-116 colon = test system: HCT-116 colon
BT-549 breast = test system: BT-549 breast
TK-10 renal = test system: TK-10 renal
CCRF-CEM leukemia = test system: CCRF-CEM leukemia
MDA-MB-435 = test system: MDA-MB-435
OVCAR-3 ovarian = test system: OVCAR-3 ovarian
SK-MEL-5 melanoma = test system: SK-MEL-5 melanoma
COLO 205 colon = test system: COLO 205 colon
T-47D breast = test system: T-47D breast
K-562 leukemia = test system: K-562 leukemia
SK-OV-3 ovarian = test system: SK-OV-3 ovarian
786-0 renal = test system: 786-0 renal

With `S=C(NCCc1ccccc1)Nc1ccc(OCc2nc3ccc(Cl)cc3[nH]2)cc1` the GI50 (MALME-3M melanoma) was 12.5 µM, the TGI (MALME-3M melanoma) was 25.2 µM and the GI50 (SN12C renal) was 6.28 µM. For the same compound, the TGI (SN12C renal) was 20.1 µM, the GI50 (NCI-H226 lung) was 12.9 µM and the TGI (NCI-H226 lung) was 35.5 µM. The GI50 (SK-MEL-2 melanoma) was 13.1 µM, the TGI (SK-MEL-2 melanoma) was 26.2 µM and the GI50 (OVCAR-5 ovarian) was 11.5 µM. It also gave a TGI (OVCAR-5 ovarian) of 23.6 µM, a GI50 (SK-MEL-28 melanoma) of 12.6 µM and a TGI (SK-MEL-28 melanoma) of 25.3 µM. It also gave a GI50 (UACC-62 melanoma) of 7.94 µM, a TGI (UACC-62 melanoma) of 20.8 µM and a GI50 (EKVX NSCLC) of 7.97 µM. It also gave a TGI (EKVX NSCLC) of 21.2 µM, a GI50 (UO-31 renal) of 3.37 µM and a TGI (UO-31 renal) of 16 µM. The GI50 (U251 CNS) was 13.1 µM, the TGI (U251 CNS) was 27.1 µM and the GI50 (MDA-MB-231 breast) was 5.75 µM. It also gave a TGI (MDA-MB-231 breast) of 19.4 µM, a GI50 (SNB-19 CNS) of 11.6 µM and a TGI (SNB-19 CNS) of 23.8 µM. For the same compound, the GI50 (HOP-92 NSCLC) was 3.52 µM, the TGI (HOP-92 NSCLC) was 17 µM and the GI50 (DU-145 prostate) was 12 µM. For the same compound, the TGI (DU-145 prostate) was 25 µM, the GI50 (MOLT-4 leukemia) was 2.46 µM and the TGI (MOLT-4 leukemia) was 7.51 µM. The GI50 (CAKI-1 renal) was 4.32 µM, the TGI (CAKI-1 renal) was 17.7 µM and the GI50 (SW-620 colon) was 9.72 µM. It also gave a TGI (SW-620 colon) of 22.7 µM, a GI50 (HCC-2998 colon) of 6.1 µM and a TGI (HCC-2998 colon) of 20.4 µM. For the same compound, the GI50 (HCT-116 colon) was 4.65 µM, the TGI (HCT-116 colon) was 17.6 µM and the GI50 (BT-549 breast) was 10.4 µM. For the same compound, the TGI (BT-549 breast) was 22.5 µM, the GI50 (TK-10 renal) was 13.8 µM and the TGI (TK-10 renal) was 27.3 µM. The GI50 (CCRF-CEM leukemia) was 3.06 µM, the TGI (CCRF-CEM leukemia) was 14.8 µM and the GI50 (MDA-MB-435) was 4.36 µM. For the same compound, the TGI (MDA-MB-435) was 17.6 µM, the GI50 (OVCAR-3 ovarian) was 3.51 µM and the TGI (OVCAR-3 ovarian) was 17.1 µM. The GI50 (SK-MEL-5 melanoma) was 12.7 µM, the TGI (SK-MEL-5 melanoma) was 25.7 µM and the GI50 (COLO 205 colon) was 12.4 µM. For the same compound, the TGI (COLO 205 colon) was 28 µM, the GI50 (T-47D breast) was 5.61 µM and the TGI (T-47D breast) was 25.3 µM. The GI50 (K-562 leukemia) was 3.04 µM, the TGI (K-562 leukemia) was 20 µM and the GI50 (SK-OV-3 ovarian) was 14.2 µM. For the same compound, the TGI (SK-OV-3 ovarian) was 27.9 µM and the GI50 (786-0 renal) was 7.67 µM.
